# Results taken from patent US7915276B2, “Berberrubine derivatives having antifungal activities” (priority 2006, dated 2011).
# Key:
# chitin synthases = assay: Inhibitory activity against the chitin synthases (summary statements); assay type: biochemical
# From the text: The inhibitory activities against the chitin synthase 1 of Candida albicans chs2 Δ chs 3 Δ (abbreviated as ‘enzyme 1’) and the chitin synthase 2 of Saccharomyces cerevisiae ECY38-38A(pAS6)(abbreviated as ‘enzyme 2’) was examined for compound Nos. 1 to 70 compound and polyoxin D, a positive control compound.
# The inhibitory activity against the chitin synthase 1 prepared from Candida albicans and the chitin synthase 2 prepared from Saccharomyces cerevisiae were examined as follows. A reaction mixture containing 32 mM Tris-HCl (pH 7.5), 2 mM cobalt acetate, 1.1 mM UDP-[U-^14C]-N-acetyl-d-glucosamine (GlcNAc) (400,000 cpm/μmol), 2 μL of trypsin (0.75 mg/mL), 20 μL of each crude enzyme and 14 μL of each test sample was kept at 30° C. for 15 minutes to activate the enzyme. Then, 2 μL of trypsin inhibitor (1.5 mg/mL) was added and the mixture was kept in an ice bath for 10 minutes to deactivate trypsin. 2 μL of 0.8 M N-acetyl-d-glucosamine was added to a total volume of 50 μL and reaction was performed at 30° C. for 90 minutes. The reaction was stopped using 1 mL of 10% TCA solution and the reaction solution was filtered with a GF/C filter and dried at room temperature. After adding 3 mL of a scintillation cocktail solution, the amount of isotopes was measured using a liquid scintillation counter. Percentage inhibition against each enzyme was calculated by the following Equation 1.
# [1] = target: T1, chitin synthase 2 of Saccharomyces cerevisiae ECY38-38A(pAS6) (Saccharomyces cerevisiae, UniProt P14180); assay: In vitro enzyme assay for chitin synthase 2 of Saccharomyces cerevisiae (enzyme 2); assay type: biochemical; conditions: relative to polyoxin D (50% inhibitory activity = value 5)
# T1 construct: made in house; host or cells: Saccharomyces cerevisiae ECY38-38A (chs1-23 chs2::LEU2 cal1/csd2) carrying plasmid pAS6, grown in galactose medium; 130,000 x g membrane pellet
# Method in brief: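 Values are scores: 5 means 50% inhibition at the same concentration as polyoxin D, lower scores 2- to 16-fold higher concentration, higher scores ½ to ⅛. Radiolabel from 1.1 mM UDP-[14C]-GlcNAc was incorporated into TCA-insoluble chitin over 90 min at 30 °C (pH 7.5 Tris, 2 mM Co2+). The enzyme was a trypsin-activated membrane fraction from CHS2-only S. cerevisiae ECY38-38A(pAS6).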
# [2] = target: T2, chitin synthase 1 of Candida albicans chs2 Δ chs 3 Δ (Candida albicans, UniProt P23316); assay: In vitro enzyme assay for chitin synthase 1 of Candida albicans (enzyme 1); assay type: biochemical; conditions: relative to polyoxin D (50% inhibitory activity = value 5)
# T2 construct: Crude enzyme was prepared using the Candida albicans chs2 Δ chs 3 Δ mutant; endogenous in cells; host or cells: Candida albicans chs2Δ/chs2Δ chs3Δ/chs3Δ mutant; 130,000 x g membrane pellet
# Method in brief: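 Trypsin-activated crude membrane chitin synthase 1 from C. albicans chs2Δ chs3Δ was incubated 90 min at 30 °C with 1.1 mM UDP-[14C]GlcNAc and 2 mM cobalt acetate in Tris-HCl pH 7.5. Filtered TCA precipitate was counted by scintillation; values are scores 1–8 against polyoxin D (5 = same concentration).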
# human pathogenic fungi = assay: Antifungal activity against human pathogenic fungi (summary statements); assay type: cell-based
# From the text: Candida albicans ATCC 10231, Candida lusitaniae ATCC 42720, Candida krusei ATCC 6258, Candida tropicalis ATCC 13803, Candida glabrata ATCC 48435, Candida parapsilosis ATCC 34136, Cryptococcus neoformans ATCC 36556, Aspergillus fumigatus ATCC 16424, Aspergillus flavus ATCC 64025, Aspergillus terreus ATCC 46941 and Mucor ramosissimus ATCC 90286 strains for the MIC (minimum inhibitory concentration) measurement were obtained from ATCC (American Type Culture Collection) in the U.S. The Candida albicans A207(clinical isolate) strain was used by isolating it from the patients.
# The determination of MIC was performed according to the NCCLS (National Committee for Clinical Laboratory Standard) method. Each test sample solution was diluted two-fold and inoculated with a fungal suspension to reach a final inoculum size of 5×10^2 to 2.5×10^3 cell/mL. The Cryptococcus neoformans strain was cultured in the RPMI 1640 medium for 72 hours. Other strains were cultured for 48 hours.
# [3] = system: Candida glabrata ATCC 48435; assay: In vitro antifungal activity (MIC), NCCLS method; assay type: cell-based; conditions: Candida glabrata ATCC 48435; 48 hours
# Method in brief: (§1)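 Broth microdilution per NCCLS: two-fold serial dilutions of test compound inoculated with fungal suspension at a final 5×10^2 to 2.5×10^3 cell/mL. Strains other than Cryptococcus neoformans were incubated 48 hours before MIC reading.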
# [4] = system: Aspergillus flavus ATCC 64025; assay: In vitro antifungal activity (MIC), NCCLS method; assay type: cell-based; conditions: 48 hours
# Method in brief: (§2)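 Two-fold dilutions, final inoculum 5×10^2–2.5×10^3 cell/mL, NCCLS protocol; 48 h culture for these strains. MIC = minimum inhibitory concentration.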
# [5] = system: Aspergillus terreus ATCC 46941; assay: In vitro antifungal activity (MIC), NCCLS method; assay type: cell-based; conditions: 48 hours
# Method in brief: as §2
# [6] = system: Candida albicans A207 (clinical isolate); assay: In vitro antifungal activity (MIC), NCCLS method; assay type: cell-based; conditions: 48 hours
# Method in brief: as §1
# Candida krusei ATCC 6258 = assay: In vitro antifungal activity (MIC), NCCLS method; assay type: cell-based; conditions: 48 hours
# Method in brief: as §1
# [7] = system: Cryptococcus neoformans ATCC 36556; assay: In vitro antifungal activity (MIC), NCCLS method; assay type: cell-based; conditions: RPMI 1640 medium, 72 hours
# Method in brief: as §1
# [8] = system: Mucor ramosissimus ATCC 90286; assay: In vitro antifungal activity (MIC), NCCLS method; assay type: cell-based; conditions: 48 hours
# Method in brief: as §1
# [9] = system: Candida tropicalis ATCC 13803; assay: In vitro antifungal activity (MIC), NCCLS method; assay type: cell-based; conditions: 48 hours
# Method in brief: as §1
# [10] = system: Candida albicans ATCC 10231; assay: In vitro antifungal activity (MIC), NCCLS method; assay type: cell-based; conditions: 48 hours
# Method in brief: as §1
# [11] = system: Candida parapsilosis ATCC 34136; assay: In vitro antifungal activity (MIC), NCCLS method; assay type: cell-based; conditions: Candida parapsilosis ATCC 34136; 48 hours
# Method in brief: as §1
# [12] = system: Candida lusitaniae ATCC 42720; assay: In vitro antifungal activity (MIC), NCCLS method; assay type: cell-based; conditions: 48 hours
# Method in brief: as §1
# [13] = system: Aspergillus fumigatus ATCC 16424; assay: In vitro antifungal activity (MIC), NCCLS method; assay type: cell-based; conditions: 48 hours
# Method in brief: as §2
# T2 sequence (P23316 whole entry, stated change not applied): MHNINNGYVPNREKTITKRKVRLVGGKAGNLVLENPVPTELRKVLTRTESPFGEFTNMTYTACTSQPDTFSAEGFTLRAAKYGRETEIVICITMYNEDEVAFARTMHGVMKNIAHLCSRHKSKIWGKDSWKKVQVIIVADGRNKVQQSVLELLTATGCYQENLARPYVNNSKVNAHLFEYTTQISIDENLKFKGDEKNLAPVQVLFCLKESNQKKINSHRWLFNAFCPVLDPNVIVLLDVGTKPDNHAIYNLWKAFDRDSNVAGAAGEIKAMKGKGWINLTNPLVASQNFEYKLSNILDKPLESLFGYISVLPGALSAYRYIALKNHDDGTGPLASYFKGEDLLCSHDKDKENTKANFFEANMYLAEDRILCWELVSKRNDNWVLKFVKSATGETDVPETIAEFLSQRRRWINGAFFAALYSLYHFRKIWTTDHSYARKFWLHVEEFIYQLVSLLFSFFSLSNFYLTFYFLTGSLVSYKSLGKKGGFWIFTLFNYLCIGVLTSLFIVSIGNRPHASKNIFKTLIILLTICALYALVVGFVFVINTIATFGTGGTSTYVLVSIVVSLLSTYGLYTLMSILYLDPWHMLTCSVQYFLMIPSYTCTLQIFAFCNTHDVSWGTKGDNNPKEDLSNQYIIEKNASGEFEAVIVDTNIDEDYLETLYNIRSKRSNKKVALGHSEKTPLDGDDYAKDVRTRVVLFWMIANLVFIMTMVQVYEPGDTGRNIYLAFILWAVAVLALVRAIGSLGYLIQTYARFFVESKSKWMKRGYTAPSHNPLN
# T1 sequence (P14180 whole entry): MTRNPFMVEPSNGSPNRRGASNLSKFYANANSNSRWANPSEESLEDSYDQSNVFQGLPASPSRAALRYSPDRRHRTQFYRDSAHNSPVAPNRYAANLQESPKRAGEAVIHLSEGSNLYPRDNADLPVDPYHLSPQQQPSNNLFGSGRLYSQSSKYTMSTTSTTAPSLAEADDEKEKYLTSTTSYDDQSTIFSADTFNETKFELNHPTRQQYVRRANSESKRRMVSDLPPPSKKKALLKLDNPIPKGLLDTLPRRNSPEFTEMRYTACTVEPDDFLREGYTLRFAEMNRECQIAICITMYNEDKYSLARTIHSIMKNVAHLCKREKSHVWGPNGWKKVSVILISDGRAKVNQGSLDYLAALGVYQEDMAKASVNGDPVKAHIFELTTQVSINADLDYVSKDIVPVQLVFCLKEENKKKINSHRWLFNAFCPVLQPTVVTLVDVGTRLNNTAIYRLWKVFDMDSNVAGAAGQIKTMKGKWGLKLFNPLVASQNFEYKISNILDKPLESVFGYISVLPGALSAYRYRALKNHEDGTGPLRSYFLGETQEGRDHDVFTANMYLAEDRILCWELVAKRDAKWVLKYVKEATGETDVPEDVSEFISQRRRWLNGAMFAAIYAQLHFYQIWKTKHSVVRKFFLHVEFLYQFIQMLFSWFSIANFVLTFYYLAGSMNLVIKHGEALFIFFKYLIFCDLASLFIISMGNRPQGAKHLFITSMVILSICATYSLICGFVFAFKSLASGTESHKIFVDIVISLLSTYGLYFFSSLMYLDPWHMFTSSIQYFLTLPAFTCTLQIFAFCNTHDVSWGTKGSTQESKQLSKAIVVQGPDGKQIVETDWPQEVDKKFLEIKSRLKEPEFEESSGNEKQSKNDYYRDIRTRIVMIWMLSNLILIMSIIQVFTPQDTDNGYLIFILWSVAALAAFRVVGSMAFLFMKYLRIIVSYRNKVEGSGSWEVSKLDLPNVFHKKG
Substance,inhibitory activities against the chitin synthases (in words) (chitin synthases),Relative activity Enzyme 2 [1],Relative activity Enzyme 1 [2],antifungal activities compared with amphotericin B (in words) (human pathogenic fungi),MIC (minimum inhibitory concentration) [3],MIC (minimum inhibitory concentration) [4],MIC (minimum inhibitory concentration) [5],MIC (minimum inhibitory concentration) [6],MIC (minimum inhibitory concentration) (Candida krusei ATCC 6258),MIC (minimum inhibitory concentration) [7],MIC (minimum inhibitory concentration) [8],MIC (minimum inhibitory concentration) [9],MIC (minimum inhibitory concentration) [10],MIC (minimum inhibitory concentration) [11],MIC (minimum inhibitory concentration) [12],MIC (minimum inhibitory concentration) [13]
13-(4-Isopropylbenzyl)-9-O-butylberberrubine iodide [Compound No. 18],exceptionally superior inhibitory activities,"7 (compounds having the inhibitory activity at ½, ¼ and ⅛ lower concentrations than that of polyoxin D were given the values of 6, 7 and 8, respectively)","4 (Compounds having the inhibitory activity at 2-fold, 4-fold, 8-fold and 16-fold higher concentrations than that of polyoxin D were given the values of 4, 3, 2 and 1, respectively)",comparable to that of amphotericin B,4 µg/mL,8 µg/mL,8 µg/mL,0.5 µg/mL,1 µg/mL,1 µg/mL,4 µg/mL,0.25 µg/mL,0.5 µg/mL,4 µg/mL,1 µg/mL,2 µg/mL
13-(4-tert-Butylbenzyl)-9-O-propylberberrubine iodide [Compound No. 7],exceptionally superior inhibitory activities,"7 (compounds having the inhibitory activity at ½, ¼ and ⅛ lower concentrations than that of polyoxin D were given the values of 6, 7 and 8, respectively)","4 (Compounds having the inhibitory activity at 2-fold, 4-fold, 8-fold and 16-fold higher concentrations than that of polyoxin D were given the values of 4, 3, 2 and 1, respectively)",comparable to that of amphotericin B,4 µg/mL,8 µg/mL,8 µg/mL,1 µg/mL,2 µg/mL,2 µg/mL,4 µg/mL,0.5 µg/mL,1 µg/mL,4 µg/mL,2 µg/mL,4 µg/mL
13-(4-Isopropylbenzyl)-9-O-propylberberrubine chloride [Compound No. 49],exceptionally superior inhibitory activities,"7 (compounds having the inhibitory activity at ½, ¼ and ⅛ lower concentrations than that of polyoxin D were given the values of 6, 7 and 8, respectively)","4 (Compounds having the inhibitory activity at 2-fold, 4-fold, 8-fold and 16-fold higher concentrations than that of polyoxin D were given the values of 4, 3, 2 and 1, respectively)",comparable to that of amphotericin B,4 µg/mL,8 µg/mL,8 µg/mL,1 µg/mL,2 µg/mL,2 µg/mL,4 µg/mL,0.5 µg/mL,1 µg/mL,4 µg/mL,1 µg/mL,4 µg/mL
13-(4-tert-Butylbenzyl)-9-O-propylberberrubine chloride [Compound No. 39],exceptionally superior inhibitory activities,"7 (compounds having the inhibitory activity at ½, ¼ and ⅛ lower concentrations than that of polyoxin D were given the values of 6, 7 and 8, respectively)","4 (Compounds having the inhibitory activity at 2-fold, 4-fold, 8-fold and 16-fold higher concentrations than that of polyoxin D were given the values of 4, 3, 2 and 1, respectively)",comparable to that of amphotericin B,4 µg/mL,8 µg/mL,8 µg/mL,1 µg/mL,2 µg/mL,2 µg/mL,4 µg/mL,0.5 µg/mL,1 µg/mL,4 µg/mL,1 µg/mL,4 µg/mL
13-(4-Isopropylbenzyl)-9-O-propylberberrubine iodide [Compound No. 17],exceptionally superior inhibitory activities,"7 (compounds having the inhibitory activity at ½, ¼ and ⅛ lower concentrations than that of polyoxin D were given the values of 6, 7 and 8, respectively)","4 (Compounds having the inhibitory activity at 2-fold, 4-fold, 8-fold and 16-fold higher concentrations than that of polyoxin D were given the values of 4, 3, 2 and 1, respectively)",comparable to that of amphotericin B,4 µg/mL,8 µg/mL,8 µg/mL,1 µg/mL,2 µg/mL,2 µg/mL,4 µg/mL,0.5 µg/mL,1 µg/mL,4 µg/mL,2 µg/mL,4 µg/mL
